Reference: ChEMBL document CHEMBL1201862, “PubChem BioAssay data set” (2004)
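Method: 48-hour compound exposure of cells in 96-well plates, five concentrations, linear interpolation of endpoints. At the GI50, growth is halved.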 Activity calls are given as the source filed them. Rule as the data show it: active = GI50 up to about 1.1 µM and inactive = higher.

Experiments:
Assay in all cases: NCI tumour cell line growth inhibition, 48 h
KM12 = system: KM12
OVCAR-8 = system: OVCAR-8
COLO 205 = system: COLO 205
CCRF-CEM = system: CCRF-CEM
HCC 2998 = system: HCC 2998
HCT-116 = system: HCT-116
NCI-H460 = system: NCI-H460
A498 = system: A498
PC-3 = system: PC-3
SF-539 = system: SF-539
SNB-75 = system: SNB-75
NCI/ADR-RES = system: NCI/ADR-RES
SN12C = system: SN12C
SW-620 = system: SW-620
M14 = system: M14
RXF 393 = system: RXF 393
ACHN = system: ACHN
CAKI-1 = system: CAKI-1
U-251 = system: U-251
UO-31 = system: UO-31
DU-145 = system: DU-145
RPMI-8226 = system: RPMI-8226
OVCAR-3 = system: OVCAR-3
786-0 = system: 786-0
BT-549 = system: BT-549
NCI-H226 = system: NCI-H226
HOP-92 = system: HOP-92
UACC-257 = system: UACC-257
HT-29 = system: HT-29
OVCAR-4 = system: OVCAR-4
SK-MEL-28 = system: SK-MEL-28
SK-MEL-5 = system: SK-MEL-5
MOLT-4 = system: MOLT-4
HCT-15 = system: HCT-15
MDA-MB-435 = system: MDA-MB-435
EKVX = system: EKVX
T47D = system: T47D
MCF7 = system: MCF7
A549 = system: A549
K562 = system: K562
NCI-H23 = system: NCI-H23
SF-295 = system: SF-295
HOP-62 = system: HOP-62
OVCAR-5 = system: OVCAR-5
SK-MEL-2 = system: SK-MEL-2
SNB-19 = system: SNB-19
UACC-62 = system: UACC-62
MDA-MB-231 = system: MDA-MB-231
MDA-N = system: MDA-N
LOX IMVI = system: LOX IMVI
SR = system: SR
IGROV-1 = system: IGROV-1
SK-OV-3 = system: SK-OV-3
NCI-H522 = system: NCI-H522
Malme-3M = system: Malme-3M
TK-10 = system: TK-10
Hs-578T = system: Hs-578T
HL-60 = system: HL-60

Structure (SMILES): CCOC(=O)c1cn(CC)c(=O)n2c1nc1ccccc12
- GI50 (KM12): 59.6 µM (inactive)
- GI50 (OVCAR-8): 38.3 µM (inactive)
- GI50 (COLO 205): > 100 µM (inactive)
- GI50 (CCRF-CEM): 28.4 µM (inactive)
- GI50 (HCC 2998): 96.8 µM (inactive)
- GI50 (HCT-116): 50.6 µM (inactive)
- GI50 (NCI-H460): 35.4 µM (inactive)
- GI50 (A498): 32.4 µM (inactive)
- GI50 (PC-3): > 100 µM (inactive)
- GI50 (SF-539): 55.5 µM (inactive)
- GI50 (SNB-75): > 100 µM (inactive)
- GI50 (NCI/ADR-RES): 62.5 µM (inactive)
- GI50 (SN12C): > 100 µM (inactive)
- GI50 (SW-620): > 100 µM (inactive)
- GI50 (M14): > 100 µM (inactive)
- GI50 (RXF 393): 61.9 µM (inactive)
- GI50 (ACHN): 55 µM (inactive)
- GI50 (CAKI-1): 57.9 µM (inactive)
- GI50 (U-251): > 100 µM (inactive)
- GI50 (UO-31): 3.48 µM (inactive)
- GI50 (DU-145): 45.5 µM (inactive)
- GI50 (RPMI-8226): 24.4 µM (inactive)
- GI50 (OVCAR-3): 83.8 µM (inactive)
- GI50 (786-0): 58.5 µM (inactive)
- GI50 (BT-549): 56.9 µM (inactive)
- GI50 (NCI-H226): 44.3 µM (inactive)
- GI50 (HOP-92): 30.1 µM (inactive)
- GI50 (UACC-257): > 100 µM (inactive)
- GI50 (HT-29): 36.7 µM (inactive)
- GI50 (OVCAR-4): 35.3 µM (inactive)
- GI50 (SK-MEL-28): > 100 µM (inactive)
- GI50 (SK-MEL-5): 49.8 µM (inactive)
- GI50 (MOLT-4): 14.1 µM (inactive)
- GI50 (HCT-15): 40.2 µM
- GI50 (MDA-MB-435): > 100 µM (inactive)
- GI50 (EKVX): > 100 µM (inactive)
- GI50 (T47D): 63.5 µM (inactive)
- GI50 (MCF7): 54.6 µM (inactive)
- GI50 (A549): 58.7 µM (inactive)
- GI50 (K562): 42.1 µM (inactive)
- GI50 (NCI-H23): 55.7 µM (inactive)
- GI50 (SF-295): > 100 µM (inactive)
- GI50 (HOP-62): > 100 µM (inactive)
- GI50 (OVCAR-5): > 100 µM (inactive)
- GI50 (SK-MEL-2): > 100 µM (inactive)
- GI50 (SNB-19): > 100 µM (inactive)
- GI50 (UACC-62): 57.5 µM (inactive)
- GI50 (MDA-MB-231): > 100 µM (inactive)
- GI50 (MDA-N): > 100 µM (inactive)
- GI50 (LOX IMVI): 31.9 µM (inactive)
- GI50 (SR): 28.4 µM (inactive)
- GI50 (IGROV-1): 33.3 µM (inactive)

Structure (SMILES): O=C(Nc1cc2c(=O)[nH]c3ccccc3c2oc1=O)c1cnccn1
- GI50 (SK-OV-3): > 100 µM (inactive)
- GI50 (KM12): > 100 µM (inactive)
- GI50 (OVCAR-8): > 100 µM (inactive)
- GI50 (COLO 205): > 100 µM (inactive)
- GI50 (CCRF-CEM): > 100 µM (inactive)
- GI50 (HCC 2998): > 100 µM (inactive)
- GI50 (HCT-116): > 100 µM (inactive)
- GI50 (NCI-H460): > 100 µM (inactive)
- GI50 (NCI-H522): > 100 µM (inactive)
- GI50 (PC-3): > 100 µM (inactive)
- GI50 (SF-539): > 100 µM (inactive)
- GI50 (SNB-75): > 100 µM (inactive)
- GI50 (NCI/ADR-RES): > 100 µM (inactive)
- GI50 (SN12C): > 100 µM (inactive)
- GI50 (SW-620): > 100 µM (inactive)
- GI50 (M14): > 100 µM (inactive)
- GI50 (RXF 393): > 100 µM (inactive)
- GI50 (ACHN): > 100 µM (inactive)
- GI50 (CAKI-1): > 100 µM (inactive)
- GI50 (U-251): > 100 µM (inactive)
- GI50 (UO-31): 80.9 µM (inactive)
- GI50 (Malme-3M): > 100 µM (inactive)
- GI50 (DU-145): > 100 µM (inactive)
- GI50 (OVCAR-3): > 100 µM (inactive)
- GI50 (786-0): > 100 µM (inactive)
- GI50 (BT-549): > 100 µM (inactive)
- GI50 (NCI-H226): > 100 µM (inactive)
- GI50 (HOP-92): > 100 µM (inactive)
- GI50 (UACC-257): > 100 µM (inactive)
- GI50 (HT-29): > 100 µM (inactive)
- GI50 (OVCAR-4): > 100 µM (inactive)
- GI50 (SK-MEL-28): > 100 µM (inactive)
- GI50 (SK-MEL-5): > 100 µM (inactive)
- GI50 (MOLT-4): > 100 µM (inactive)
- GI50 (HCT-15): > 100 µM
- GI50 (MDA-MB-435): > 100 µM (inactive)
- GI50 (EKVX): > 100 µM (inactive)
- GI50 (T47D): > 100 µM (inactive)
- GI50 (MCF7): > 100 µM (inactive)
- GI50 (A549): > 100 µM (inactive)
- GI50 (K562): > 100 µM (inactive)
- GI50 (NCI-H23): > 100 µM (inactive)
- GI50 (SF-295): > 100 µM (inactive)
- GI50 (OVCAR-5): > 100 µM (inactive)
- GI50 (SK-MEL-2): > 100 µM (inactive)
- GI50 (SNB-19): > 100 µM (inactive)
- GI50 (UACC-62): > 100 µM (inactive)
- GI50 (MDA-MB-231): > 100 µM (inactive)
- GI50 (MDA-N): > 100 µM (inactive)
- GI50 (LOX IMVI): > 100 µM (inactive)
- GI50 (SR): > 100 µM (inactive)
- GI50 (IGROV-1): > 100 µM (inactive)
- GI50 (TK-10): > 100 µM (inactive)

Structure (SMILES): Oc1cc(-c2cccc(C(F)(F)F)c2)nc2cc3c(cc12)OCO3
- GI50 (SK-OV-3): 2.26 µM (inactive)
- GI50 (KM12): 2.12 µM (inactive)
- GI50 (OVCAR-8): 2.34 µM (inactive)
- GI50 (COLO 205): 8.93 µM (inactive)
- GI50 (CCRF-CEM): 0.277 µM (active)
- GI50 (HCC 2998): 3.44 µM (inactive)
- GI50 (NCI-H460): 1.39 µM (inactive)
- GI50 (A498): 8.87 µM (inactive)
- GI50 (NCI-H522): 0.536 µM (active)
- GI50 (Hs-578T): 1.66 µM (inactive)
- GI50 (PC-3): 0.365 µM (active)
- GI50 (SF-539): 1.04 µM (active)
- GI50 (SNB-75): 1.06 µM (active)
- GI50 (NCI/ADR-RES): 1.04 µM (active)
- GI50 (SN12C): 8.75 µM (inactive)
- GI50 (SW-620): 2.21 µM (inactive)
- GI50 (M14): 1.76 µM (inactive)
- GI50 (ACHN): 25.7 µM (inactive)
- GI50 (CAKI-1): 10.9 µM (inactive)
- GI50 (U-251): 2.55 µM (inactive)
- GI50 (UO-31): 8.89 µM (inactive)
- GI50 (Malme-3M): 0.518 µM (active)
- GI50 (RPMI-8226): 1.77 µM (inactive)
- GI50 (786-0): 2.05 µM (inactive)
- GI50 (BT-549): 1.24 µM (inactive)
- GI50 (HOP-92): 2.24 µM (inactive)
- GI50 (HT-29): 13.7 µM (inactive)
- GI50 (SK-MEL-28): 2.87 µM (inactive)
- GI50 (MOLT-4): 2.82 µM (inactive)
- GI50 (HCT-15): 1.38 µM
- GI50 (MDA-MB-435): 0.935 µM (active)
- GI50 (EKVX): 1.5 µM (inactive)
- GI50 (T47D): > 50 µM (inactive)
- GI50 (MCF7): 2.23 µM (inactive)
- GI50 (A549): 3.97 µM (inactive)
- GI50 (K562): 0.26 µM (active)
- GI50 (NCI-H23): 1.77 µM (inactive)
- GI50 (HL-60): 0.246 µM (active)
- GI50 (HOP-62): 1.83 µM (inactive)
- GI50 (OVCAR-5): 1.49 µM (inactive)
- GI50 (SK-MEL-2): 1.28 µM (inactive)
- GI50 (SNB-19): 2.77 µM (inactive)
- GI50 (UACC-62): 1.51 µM (inactive)
- GI50 (MDA-MB-231): 1.87 µM (inactive)
- GI50 (SR): 0.55 µM (active)
- GI50 (IGROV-1): 3.29 µM (inactive)
- GI50 (TK-10): > 50 µM (inactive)
